Measured values reported in US20210195924A1, “PHOTODYNAMIC INACTIVATION METHOD OF SALMONELLA” (SHANGHAI OCEAN UNIVERSITY, priority 2019, published 2021).

Columns and labels:
[1] = test system: Salmonella typhimurium CICC 21484 and Salmonella enteritidis CMCC 50041; test: Riboflavin-mediated photodynamic inactivation of Salmonella in bacterial solution (455-460 nm LED blue light, plate count); assay type: cell-based
[2] = test system: Salmonella on contaminated egg shells; test: Salmonella inactivation experiment for fresh egg shells; assay type: cell-based
Method: Sterile egg shells were mixed with a Salmonella bacterial solution to be contaminated and divided into three groups as follows: 1, a single photosensitizer group with riboflavin concentration of 150 μmol/L, was subjected to the dark incubation for 40 min without the illumination of a blue light source; 2, a photodynamic experiment group with riboflavin concentration of 150 μmol/L, was subjected to the dark incubation for 40 min under the illumination of the blue light source for 40 min; and 3, a blank reference group with a saline solution having a volume equal to that of the riboflavin solution. Each group was provided with two parallel groups.
Bacteria culture: under a sterile condition, each group of egg shells was diluted with the saline solution for two times and then homogenized by a sterile homogenizing device and diluted. 100 μL diluent with appropriate dilution degrees was inoculated into the TSA solid culture medium and cultured for 24 to 48 h in the thermostatic incubator at 37° C. The number of bacterial colonies in each group was counted.

[3] = test system: vesicular stomatitis virus; conditions: ultraviolet radiation; riboflavin 300 μmol/L; under 10 minutes; cited from earlier work
[4] = test system: Staphylococcus aureus; conditions: Gram-positive bacteria Staphylococcus aureus; cited from earlier work
[5] = test system: Escherichia coli; conditions: Gram-negative bacteria Escherichia coli; cited from earlier work

Cc1cc2nc3c(=O)[nH]c(=O)nc-3n(C[C@H](O)[C@H](O)[C@H](O)CO)c2cc1C [riboflavin]
amount of Salmonella reduced ([1]; riboflavin 100 μmol/L, incubation time 40 min, illumination time 30 min, initial inoculation about 4.5×10^6 CFU/mL): 1.12 Log CFU/mL
lethality (fatality rate) of Salmonella ([1]; riboflavin 150 μmol/L, dark incubation 40 min, illumination 30 min): 100%
fatality rate of Salmonella ([1]; riboflavin 150 μmol/L, dark incubation 40 min, illumination time 40 min): 100%
lethality (fatality rate) of Salmonella ([1]; riboflavin 150 μmol/L, dark incubation 40 min, no blue light (illumination 0 min)): extremely low
amount of Salmonella reduced ([1]; riboflavin 150 μmol/L, incubation 40 min, illumination time 20 min, initial inoculation about 6.75 Log CFU/mL): 2.23 Log CFU/mL
amount of Salmonella reduced ([1]; riboflavin 150 μmol/L, incubation 40 min, illumination time 30 min, initial inoculation about 6.75 Log CFU/mL (Embodiment 3)): 6.21 Log CFU/mL
amount of Salmonella reduced ([1]; riboflavin 150 μmol/L, incubation 40 min, illumination time 40 min, initial inoculation about 6.75 Log CFU/mL): 6.75 Log CFU/mL
amount of Salmonella reduced ([1]; riboflavin 150 μmol/L, incubation 40 min, illumination time 50 min, initial inoculation about 6.75 Log CFU/mL): 6.75 Log CFU/mL
amount of Salmonella reduced ([1]; riboflavin 150 μmol/L, incubation time 40 min, illumination time 30 min, initial inoculation about 4.5×10^6 CFU/mL (Embodiment 1)): 6.14 Log CFU/mL
lethality of Salmonella ([1]; riboflavin 200 μmol/L, dark incubation 40 min, illumination 30 min): 100%
amount of Salmonella reduced ([1]; riboflavin 200 μmol/L, incubation time 40 min, illumination time 30 min, initial inoculation about 4.5×10^6 CFU/mL): 6.21 Log CFU/mL
lethality of Salmonella ([1]; riboflavin concentration increased beyond 200 μmol/L, dark incubation 40 min, illumination 30 min): apparently decreased
sterilization rate ([2]; egg shells, photodynamic inactivation with riboflavin as photosensitizer, multiple experiments): 99.88%
number of bacterial colonies in the egg shells after the PDI treatment ([2]; riboflavin 150 μmol/L, dark incubation 40 min, blue light 40 min, blank reference group 7.4×10^5 CFU/g): 8.4×10^2 CFU/g
number of bacterial colonies in the egg shells of the single photosensitizer group ([2]; riboflavin 150 μmol/L, dark incubation 40 min, no blue light, blank reference group 7.4×10^5 CFU/g): 7.0×10^5 CFU/g
virus killing [3]: killed

chlorophyllin ester
photodynamic inactivation effect [4]: significant photodynamic inactivation effect
influence on growth [5]: no influence on the growth
